Test results taken from patent publication US9849190B2, “Peptide having cancer selective translocation function and use thereof” (SNU R&DB FOUNDATION, priority 2012, dated 2017).

How the values were obtained:
[1] = system: tumor cell line (MDA-MB-231, ATCC); assay: Tumor cell penetration of fluorescent-labelled peptides (FACS, confocal microscopy); assay type: cell-based; conditions: for fluorescence of the tumor cells measured by FACS: MDA-MB-231, 60 minutes after inoculation, various peptide concentrations, FIG. 1A; for ability to penetrate the tumor cell line, confocal laser scanning microscope: MDA-MB-231, various peptide concentrations, FIG. 1B
Experimental: In order to test the tumor cell-targeting and tumor cell-penetrating abilities of the VPTD peptide of SEQ ID NO: 1 and the HPTD peptide of […], prepared in Example 1, the termini of the prepared peptides were labeled with a fluorescent dye, and then each of the peptides was inoculated into a tumor cell line (MDA-MB-231, ATCC) at various concentrations.
60 minutes after the inoculation, the fluorescence of the cells was measured by FACS, and the results of the measurement are shown in FIGS. 1A and 1B.

[2] = Slot-blot analysis of binding to heparin; conditions: FIG. 2
Description: (§1) This is believed to be because the tumor-penetrating ability of the VPTD peptide of the present invention was maximized in the tumor tissue and the VPTD peptide did bind specifically to VEGF to inhibit vascular formation essential for the formation and progression of tumors. […] As a result, it could be seen that the VPTD peptide and the HPTD peptide did all bind to VEGF and heparin, which are overexpressed in tumor cells or tumor tissue.

VEGF = assay: Slot-blot analysis of binding to VEGF; conditions: FIG. 2
Description: as §1

tumor induced in mice = assay: Tumor inhibitory effect in tumor-induced mice; assay type: in vivo; conditions: injected, volume measured every 3-4 days for 30 days, versus control, FIG. 3
Experimental: In order to test the effects of the VPTD peptide of SEQ ID NO: 1 (VSRRRRRRGGRRRR) and the HPTD peptide of SEQ ID NO: (CSSRKKNPNCRRH), prepared in Example 1, and the tumor-targeting and tumor-penetrating peptide-drug conjugates prepared in Example 2, a tumor was induced in mice, and when the tumor grew to a predetermined size, each of the peptides prepared in Example 1 and the tumor-targeting and tumor-penetrating peptide-drug conjugates prepared in Example 2 was injected into the mice. After injection, the volume of the tumor was measured at intervals of 3-4 days for 30 days. On day 30, the mice were sacrificed, and the tumor was extracted and photographed.
as §1

Q: What does the source list for CSSRKKNPNCRRH (HPTD) [HPTD peptide]?
A: fluorescence of the tumor cells measured by FACS [1]: increased in a manner dependent on the concentration of the peptide; ability to penetrate the tumor cell line, confocal laser scanning microscope [1]: increased in a manner dependent on the concentration of the peptide; binding to heparin [2]: did all bind; binding to VEGF (VEGF): did all bind

Q: What does the source list for VSRRRRRRGGRRRR (VPTD) [VPTD peptide]?
A: fluorescence of the tumor cells measured by FACS [1]: increased in a manner dependent on the concentration of the peptide; ability to penetrate the tumor cell line, confocal laser scanning microscope [1]: increased in a manner dependent on the concentration of the peptide; binding to heparin [2]: did all bind; progression of the tumor (tumor volume) (tumor induced in mice): significantly inhibited; binding to VEGF (VEGF): did all bind
